Measurements taken from patent publication US4962224A, “N-naphthoylglycines as aldose reductase inhibitors” (American Home Products Corporation, priority 1989, dated 1990).
“And” between values parts separate entries of the source, which are not always exact repeats. Identical values can stand only once.

Legend:
aldose reductase = molecular target: T1, aldose reductase (Bos taurus, UniProt P16116); test: aldose reductase inhibiting effects in vitro (Table I, IN VITRO); assay type: biochemical, bovine (lens); conditions: read-out: % Inhibition IN VITRO
T1 construct: preparation of the enzyme from bovine lens; from tissue; host or cells: bovine lens
Text: In the present case the procedure of Hayman and Kinoshita was modified in that the final chromatography step was omitted in the preparation of the enzyme from bovine lens. The results are tabulated in Table I under the heading IN VITRO.

dulcitol accumulation = test: lowering of dulcitol (galactitol) accumulation in tissues of galactosemic rats (Table I, IN VIVO); design: species or system rat (Sprague-Dawley); conditions: for % Lowering dulcitol accumulation IN VIVO, D: diaphragm; for % Lowering dulcitol accumulation IN VIVO, D / % Lowering dulcitol accumulation IN VIVO, L: galactosemic rats, 4 days; for % Lowering dulcitol accumulation IN VIVO, L: lens
Text: Such experiments are exemplified hereinbelow after the listing of the following general comments pertaining to these experiments:
(a) Four or more groups of six male rats, […], Sprague-Dawley strain, were used. The first group, the control group, was fed a mixture of laboratory chow (rodent Laboratory Chow, Purina) and […] at 20% (w/w %) concentration. […] The test compound was either admixed to the diet or administered by gavage. In experiments involving compound administration in the diet, the average dose administered was calculated from the actual food intake of the animals in each group. The concentration of galactose in the diet of the treated groups was the same as that for the untreated galactosemic group.
(b) After four days, the animals were killed by decapitation. The eyeballs were removed and punctured with a razor blade; the freed lenses were rolled gently on filter paper and weighed. The sciatic nerves were dissected as completely as possible and weighed. Both tissues when frozen can be kept up to two weeks before being analyzed for galactitol.
Only two minor reagent changes were made: (a) the rinsing mixture was an aqueous 5% (w/v) trichloroacetic acid solution and (b) the stock solution was prepared by dissolving 25 mg of dulcitol in 100 mL of an aqueous trichloroacetic acid solution. [N.B.: For each experiment the average value found in the tissue from rats fed the glucose diet was subtracted from the individual values found in the corresponding tissue in galactose-fed rats to obtain the amount of polyol accumulated.]
The figures under L, N, and D represent the percentage decrease of galactitol accumulation in the tissues of the lens, sciatic nerve, and diaphragm, respectively, for treated rats as compared to untreated rats.

[1] = test system: Sciatic Nerve Polyol Accumulation; test: Two-Week Streptozocin - Diabetic Rat Model, lowering of sciatic nerve polyol accumulation; assay type: in vivo, rat (Sprague-Dawley); conditions: gavage, 14 days, STZ diabetic rats
Text: A second in vivo model examined the effect of the compounds of the present invention on sorbitol accumulation in the tissues of 14-day streptozocin (STZ) (Upjohn) diabetic rats.
In each of the studies male Sprague-Dawley rats from Charles River Labs, Kingston, N.Y., weighing 200 to 250 g, were used. The animals were weighed and observed for 5 days prior to the start of the study.
In each study the rats were randomly assigned by weight into groups of 15 animals except for group I which contained 8 animals. The groups were treated as follows:
Group II: STZ, 110 mg/kg i.p.
Group IV: STZ, 110 mg/kg i.p. followed by various doses of a compound of the present invention given by gavage for 14 days, beginning on the day of induction of diabetes.
Following an overnight fast (water ad lib) the animals in groups II-IV were given by i.p. injection 110 mg STZ per kg body weight. The STZ was dissolved in cold citric acid, 0.03M, pH 4.5 and injected within 5 minutes of being dissolved. Control rats (group I) were injected with buffer only.
Two days after STZ injection plasma glucose levels (from the tail vein) were determined following a 4 hour fast. Excluded from the study were animals whose plasma glucose was below 300 mg/dl.
On the morning of the 14th day following STZ injection the animals were fasted 4 hours prior to sacrificing by decapitation. The blood was collected into heparin containing tubes and placed on ice. Both lenses and sciatic nerves were removed immediately, weighed, frozen, and stored at -20° C. until analyzed for sorbitol. The RBCs were collected by centrifugation, the plasma was removed and the cells were washed once with 10 volumes of cold saline. The washed packed RBCs were divided into 1 mL aliquots, extracted with cold perchloric acid and the acid extracts were stored at -20° C. until analyzed for sorbitol.

With `COc1ccc2c(C(=O)N(C)CC(N)=O)c(F)ccc2c1C(F)(F)F` [Example 1, N-[(Aminocarbonyl)methyl]-2-fluoro-6-methoxy-N-methyl-5-(trifluoromethyl)-1-naphthalenecarboxamide] the inhibition at 10 µM (aldose reductase; 10^-5 M) was 1%, the inhibition at 1 µM (aldose reductase; 10^-6 M) was 0% and the “results in the sciatic nerve compared with tolrestat” value (dulcitol accumulation; 10 mg/kg/day versus tolrestat at 9 mg/kg/day, sciatic nerve) was “comparable results”. The “% Lowering dulcitol accumulation IN VIVO, D” value (dulcitol accumulation; 5 mg/kg) was 32%, the “% Lowering dulcitol accumulation IN VIVO, D” value (dulcitol accumulation; 10 mg/kg) was 53% and 58% and the “% Lowering dulcitol accumulation IN VIVO, D” value (dulcitol accumulation; 12 mg/kg) was 52%. The “% Lowering dulcitol accumulation IN VIVO, D” value (dulcitol accumulation; 14 mg/kg) was 62%, the “% Lowering dulcitol accumulation IN VIVO, D” value (dulcitol accumulation; 15 mg/kg) was 57% and the “% Lowering dulcitol accumulation IN VIVO, D” value (dulcitol accumulation; 19 mg/kg) was 63%. For the same molecule, the “% Lowering dulcitol accumulation IN VIVO, D” value (dulcitol accumulation; 24 mg/kg) was 75%, the “% Lowering dulcitol accumulation IN VIVO, L” value (dulcitol accumulation; 5 mg/kg) was “N.S” and the “% Lowering dulcitol accumulation IN VIVO, L” value (dulcitol accumulation; 10 mg/kg) was “N.S”. For the same molecule, the “% Lowering dulcitol accumulation IN VIVO, L” value (dulcitol accumulation; 12 mg/kg) was “N.S”, the “% Lowering dulcitol accumulation IN VIVO, L” value (dulcitol accumulation; 14 mg/kg) was “N.S” and the “% Lowering dulcitol accumulation IN VIVO, L” value (dulcitol accumulation; 15 mg/kg) was “N.S”. For the same molecule, the “% Lowering dulcitol accumulation IN VIVO, L” value (dulcitol accumulation; 19 mg/kg) was “N.S”, the “% Lowering dulcitol accumulation IN VIVO, L” value (dulcitol accumulation; 24 mg/kg) was “N.S” and the “% Lowering of Sciatic Nerve Polyol Accumulation, Fructose” value (“% Lowering … Fructose” below) ([1]; 3 mg/kg) was 69%. The “% Lowering of Sciatic Nerve Polyol Accumulation, Sorbital” value (from here on “% Lowering … Sorbital”) ([1]; 3 mg/kg) was 50%, the “% Lowering … Fructose” value ([1]; 6 mg/kg) was 87% and the “% Lowering … Sorbital” value ([1]; 6 mg/kg) was 77%. For the same molecule, the “% Lowering … Fructose” value ([1]; 9 mg/kg) was 94%, the “% Lowering … Sorbital” value ([1]; 9 mg/kg) was 79% and the “% Lowering … Fructose” value ([1]; 12 mg/kg) was 98%. For the same molecule, the “% Lowering … Sorbital” value ([1]; 12 mg/kg) was 78%, the “% Lowering … Fructose” value ([1]; 20 mg/kg) was 105% and the “% Lowering … Sorbital” value ([1]; 20 mg/kg) was 84%.

With `COc1ccc2c(C(=S)N(C)CC(=O)O)cccc2c1C(F)(F)F` [tolrestat, N-[[6-methoxy-5-(trifluoromethyl)-1-naphthalenyl]thioxomethyl]-N-methylglycine, reference compound] the “% Lowering dulcitol accumulation IN VIVO, L” value (dulcitol accumulation; 9 mg/kg) was “N.S”, the “% Lowering … Fructose” value ([1]; 6 mg/kg) was 58% and the “% Lowering … Sorbital” value ([1]; 6 mg/kg) was 53%.
